In US20080051429A1, “USE OF 4-AMINO-PIPERIDINES FOR TREATING SLEEP DISORDERS” (priority 2006, published 2008):

Tested on: healthy volunteers
Test: Polysomnography (PSG) sleep study, double-blind, placebo-controlled
Assay type: in vivo, human
Description: A double-blind, placebo-controlled study involving 45 healthy volunteers ranging in age from 40 to 64 was conducted. […] All subjects underwent a two-night screening and baseline PSG evaluation. Additional PSG measurements were performed on the evening of study days 1 and 13. The subjects also completed a Continuous Performance Test (CPT) to assess the potential impact on daytime functioning. […] Of the 45 subjects, 20 of them also underwent a positron emission tomography (PET) study to measure 5-HT2A brain receptor occupancy.
During an assessment period, participants stayed overnight in the clinic for […] from Day −1 to Day 2 and one night from Day 13 to Day 14. Participants underwent a one-night PSG evaluation on the evening of Day 1, following the first dose of treatment and a final one-night PSG evaluation on the evening of Day 13. Between Day 3 and Day 12, participants were at home.
Polysomnographic recordings were performed from 23:00 to 07:00 on the following day.
The drug was dispensed as a solution (in vials) per os (p.o.), in a double-blind fashion as determined by the randomization schedule. The content of the vials was completely consumed followed by the consumption of one vial of water.
Data Analysis: A multivariate analyses of variance (MANOVA) with 5 clusters of sleep parameters as dependent variables (sleep continuity architecture and profile parameters for the visual analysis, and NREM and REM parameters for the spectral power analysis as shown in Table 1) was conducted initially. Change from baseline to the last day of drug administration was assessed by an analysis of covariance with repeated measures (ANCOVA®), with the baseline variables as covariates, to detect group differences (drug at each dose versus placebo) in the PSG sleep findings. For each ANCOVA, two main effects (Treatment, 4 levels, and Study Day, 2 levels) and their interaction were analyzed. Drug to placebo contrasts were calculated as a whole (Day 1 and Day 13 combined) as well as separately for each Study Day. Change from baseline to the last day of drug administration, by group, on the results of the CPT was also analyzed. Additional pharmacodynamic analysis, including the electrographic results obtained on Study Day 1, was performed. SAS® Version 8.2 was used for non-pharmacokinetic parameters and WinNonLin V4.0 was used to compute all pharmacokinetic parameters.

## CC(C)COc1ccc(CNC(=O)N(Cc2ccc(F)cc2)C2CCN(C)CC2)cc1 [N-(1-methylpiperidin-4-yl)-N-(4-fluorophenylmethyl)-N′-(4-(2-methylpropyloxy)phenylmethyl)carbamide]
1 mg, Day 1
  Change in Slow Wave Sleep From Baseline: 6.4 min
  Change in Slow Wave Sleep From Baseline, Percentage: 10%
  Duration (min) of wake after sleep onset: 47.67 min
  Number of awakenings after sleep onset: 20.22
  SWS duration: 69.78 min
1 mg, Day 13
  Change in Slow Wave Sleep From Baseline: 5.4 min
  Change in Slow Wave Sleep From Baseline, Percentage: 9%
  Duration (min) of wake after sleep onset: 40.06 min
  Number of awakenings after sleep onset: 20.78
  SWS duration: 68.78 min
2.5 mg, C
  NREM sleep %: ↑ (↑, <.05)
  NREM sleep duration: ↑ (↑, <.05)
  SWS 2nd third: ↑↑ (↑↑, <.01)
  SWS %: ↑↑ (↑↑, <.01)
  Stage 3%: ↑ (↑, <.05)
  Stage 3 duration: ↑ (↑, <.05)
  Stage 4%: ↑ (↑, <.05)
  Stage 4 duration: ↑ (↑, <.05)
2.5 mg, D1
  SWS 2nd third: ↑ (↑, <.05)
  SWS %: ↑ (↑, <.05)
  Stage 3%: ↑ (↑, <.05)
  Stage 3 duration: ↑ (↑, <.05)
2.5 mg, D13
  NREM sleep %: ↑↑ (↑↑, <.01)
  NREM sleep duration: ↑ (↑, <.05)
2.5 mg, Day 1
  Change in Slow Wave Sleep From Baseline: 21.8 min
  Change in Slow Wave Sleep From Baseline, Percentage: 40%
  Duration (min) of wake after sleep onset: 51.00 min
  Number of awakenings after sleep onset: 21.44
  SWS duration: 75.83 min
2.5 mg, Day 13
  Change in Slow Wave Sleep From Baseline: 19.6 min
  Change in Slow Wave Sleep From Baseline, Percentage: 36%
  Duration (min) of wake after sleep onset: 30.44 min
  Number of awakenings after sleep onset: 19.78
  SWS duration: 73.61 min
5 mg, C
  SWS 1st third: ↑↑ (↑↑, <.01)
  SWS 2nd third: ↑↑ (↑↑, <.01)
  SWS %: ↑↑ (↑↑, <.01)
  Stage 1%: ↓ (↓, <.05)
  Stage 2%: ↓ (↓, <.05)
  Stage 3%: ↑ (↑, <.05)
  Stage 3 duration: ↑ (↑, <.05)
  Stage 4%: ↑↑ (↑↑, <.01)
  Stage 4 duration: ↑↑ (↑↑, <.01)
5 mg, D1
  SWS 1st third: ↑↑ (↑↑, <.01)
  SWS %: ↑↑ (↑↑, <.01)
  Stage 1%: ↓ (↓, <.05)
  Stage 2%: ↓ (↓, <.05)
  Stage 3%: ↑ (↑, <.05)
  Stage 3 duration: ↑ (↑, <.05)
  Stage 4%: ↑↑ (↑↑, <.01)
  Stage 4 duration: ↑↑ (↑↑, <.01)
5 mg, D13
  SWS 1st third: ↑ (↑, <.05)
  SWS 2nd third: ↑ (↑, <.05)
  SWS %: ↑↑ (↑↑, <.01)
  Stage 4%: ↑↑ (↑↑, <.01)
  Stage 4 duration: ↑↑ (↑↑, <.01)
5 mg, Day 1
  Change in Slow Wave Sleep From Baseline: 37.3 min
  Change in Slow Wave Sleep From Baseline, Percentage: 65%
  Duration (min) of wake after sleep onset: 64.56 min
  Number of awakenings after sleep onset: 20.67
  SWS duration: 94.89 min
5 mg, Day 13
  Change in Slow Wave Sleep From Baseline: 41.9 min
  Change in Slow Wave Sleep From Baseline, Percentage: 73%
  Duration (min) of wake after sleep onset: 43.89 min
  Number of awakenings after sleep onset: 21.78
  SWS duration: 99.56 min
20 mg
  duration and proportion of wake after sleep onset: decreased
20 mg, C
  NREM sleep %: ↑↑ (↑↑, <.01)
  NREM sleep duration: ↑ (↑, <.05)
  SWS 1st third: ↑↑ (↑↑, <.01)
  SWS 2nd third: ↑↑ (↑↑, <.01)
  SWS %: ↑↑ (↑↑, <.01)
  Stage 2 duration: ↓ (↓, <.05)
  Stage 3%: ↑ (↑, <.05)
  Stage 3 duration: ↑ (↑, <.05)
  Stage 4%: ↑↑ (↑↑, <.01)
  Stage 4 duration: ↑↑ (↑↑, <.01)
20 mg, D1
  SWS 2nd third: ↑↑ (↑↑, <.01)
  SWS %: ↑↑ (↑↑, <.01)
  Stage 2 duration: ↓ (↓, <.05)
  Stage 4%: ↑↑ (↑↑, <.01)
  Stage 4 duration: ↑↑ (↑↑, <.01)
20 mg, D13
  NREM sleep %: ↑↑ (↑↑, <.01)
  SWS 2nd third: ↑↑ (↑↑, <.01)
  SWS %: ↑↑ (↑↑, <.01)
  Stage 4%: ↑↑ (↑↑, <.01)
  Stage 4 duration: ↑↑ (↑↑, <.01)
20 mg, Day 1
  Change in Slow Wave Sleep From Baseline: 46.0 min
  Change in Slow Wave Sleep From Baseline, Percentage: 55%
  Duration (min) of wake after sleep onset: 33.44 min
  Number of awakenings after sleep onset: 20.89
  SWS duration: 129.94 min
20 mg, Day 13
  Change in Slow Wave Sleep From Baseline: 39.0 min
  Change in Slow Wave Sleep From Baseline, Percentage: 46%
  Duration (min) of wake after sleep onset: 29.89 min
  Number of awakenings after sleep onset: 18.89
  SWS duration: 122.94 min
In words
  REM sleep duration, proportion of REM sleep, REM sleep latency, REM activity or REM density: no effect
  latency to sleep onset: did not alter
The 4 doses, most significant in 2.5 mg and 5 mg groups
  number of awakenings after sleep onset, drug to placebo contrasts: significantly decreased
